According to patent publication US20140213445A1, “Use of Pesticidal Active 3-Arylquinazolin-4-One Derivatives in Soil Application Methods” (BASF SE, priority 2011, published 2014):

Experiments:
[1] = system: 2-Spotted Spider Mite (Tetranychus urticae); assay: Test B.1.1 Foliar assay 2-spotted spider mite on Sieva lima bean plants; assay type: in vivo; details: 120 h, test solution 100 ppm, infested lima bean plants dipped, counts after 5 days, read-out: mortality in comparison with untreated controls
Method: The active compounds were formulated in 50:50 (vol:vol) acetone:water and 100 ppm Kinetica™ surfactant.
At about 2 hours before treatment Sieva lima bean plants with primary leaves expanded to 7-12 cm were infested by placing on each a small piece from an infested leaf (with about 100 mites) taken from the main colony in order to allow the mites to move over to the test plant to lay eggs. The piece of leaf used to transfer the mites was removed. The newly-infested plants were dipped in the test solution and allowed to dry. The test plants were kept under fluorescent light (24 hour photoperiod) at about 25° C. and about 20-40% relative humidity. After 5 days mortality counts were made.

[2] = system: Kanzawa Spider Mite (Tetranychus kanzawai); assay: Test B.1.2 Foliar assay Kanzawa spider mite on potted cotton plants; assay type: in vivo; details: cotton plants sprayed, assessed after 24, 72 and 120 hours, read-out: mortality in comparison with untreated controls
[3] = system: root-knot nematode (Meliodogyne spp.) juveniles; assay: Test B.2.1 Tomato soil drench against root-knot nematode juveniles; assay type: in vivo; details: soil drench 0.75 mg active ingredient/plant, galls counted at 14 DAT
Method: Tomatoes were grown in potting soil until the approximate first true leaf stage (about 2 weeks after planting). Tomatoes were transplanted into play sand. Seven days after transplant, technical material of test compound was dissolved in acetone, and then water was added to achieve a final concentration of 50% acetone. 1 mL of solution was pipetted onto the tomato root zone. One day after treatment (DAT), each pot was infested with about 500 root-knot nematode (Meliodogyne spp.) juveniles in 1 ml distilled water. Immediately after infestation, plants were placed in the greenhouse. Plants were top watered and fertilized daily. At 14 DAT, the tomato roots were rinsed off, and the number of galls was counted. Replication was 5-times.

two spotted spider mites [4] = assay: Test B.1.4 Seed treatment assay in cotton; assay type: in vivo; details: cotton seed coated 0.5 mg active ingredient/seed, assessed 4 days after release of mites
two spotted spider mites [5] = assay: Test B.1.5 Seed treatment assay in cucumber; assay type: in vivo; details: cucumber seed coated 0.5 mg active ingredient/seed, assessed 4 days after release of mites
Method: Test solution comprising a compound of the present invention is prepared at desired concentration using water and acetone as organic solvent. Cucumber seeds are coated with such prepared test solution applied at the rate of 0.5 mg active ingredient/seed and sown to the pots. After plant emergence (eleven days after treatment & planting), a mixed population of two spotted spider mites is released onto the leaves.
Four days after the release of spider mites, the acaricidal efficacy is measured by means of the rating of the damage caused by spider mites.
Percent damage as lesions was visually assessed, and means were calculated for each treatment. Mean percent damage reduction relative to the solvent blank was calculated as 100−(mean % lesions in treatment/mean % lesions in Solvent blank)*100.

[6] = system: two spotted spider mites (Tetranychus urticae); details: soil drench 4 mg active ingredient/plant, mites released 4 days after treatment, assessed 5 days after release

## Cc1cc(F)c(-n2cnc3ccc(F)cc3c2=O)cc1SCC(F)(F)F [CE.I.30, 6-Fluoro-3-[2-fluoro-4-methyl-5-2(2,2,2-trifluoroethylsulfanyl)-phenyl]-3H-quinazolin-4-one]
[1]
  mortality at 100 ppm: ≥ 70%

## Cc1cc(F)c(-n2cnc3ccc(F)cc3c2=O)cc1[S+]([O-])CC(F)(F)F (centres unmarked) [CE.I.31, 6-Fluoro-3-[2-fluoro-4-methyl-5-2(2,2,2-trifluoroethanesulfinyl)-phenyl]-3H-quinazolin-4-one]
[1]
  mortality at 100 ppm: ≥ 70%
[2]
  mortality at 100 ppm: ≥ 70%
[3]
  mean percent reduction of galls in comparison with untreated controls: at least 90%

## Cc1cc(F)c(-n2cnc3ccc(OC(F)(F)F)cc3c2=O)cc1SCC(F)(F)F [CE.I.32, 6-Trifluoromethoxy-3-[2-fluoro-4-methyl-5-2(2,2,2-trifluoroethylsulfanyl)-phenyl]-3H-quinazolin-4-one]
[1]
  mortality at 100 ppm: ≥ 70%

## Cc1cc(F)c(-n2cnc3ccc(OC(F)(F)F)cc3c2=O)cc1[S+]([O-])CC(F)(F)F (centres unmarked) [CE.I.33, 6-Trifluormethoxy-3-[2-fluoro-4-methyl-5-2(2,2,2-trifluoroethanesulfinyl)-phenyl]-3H-quinazolin-4-one]
[1]
  mortality at 100 ppm: ≥ 70%
[2]
  mortality at 100 ppm: ≥ 70%

## Cc1cc(F)c(-n2cnc3ccccc3c2=O)cc1SCC(F)(F)F [CE.I.34, 2-(2,2,2-trifluoroethylsufanyl)-4-(4-oxo-quinazolin-3-yl)-5-fluoro-toluol]
[1]
  mortality at 100 ppm: ≥ 70%
[2]
  mortality at 100 ppm: ≥ 70%

## Cc1cc(F)c(-n2cnc3ccccc3c2=O)cc1[S+]([O-])CC(F)(F)F (centres unmarked) [CE.I.35, 2-(2,2,2-trifluoroethylsufinyl)-4-(4-oxo-quinazolin-3-yl)-5-fluoro-toluol]
[1]
  mortality at 100 ppm: ≥ 70%
[2]
  mortality at 100 ppm: ≥ 70%
Two spotted spider mites [4]
  mean percent damage reduction in the cotyledon stage: at least 90%
Two spotted spider mites [5]
  mean percent damage reduction in the cotyledon stage: at least 50%
[6]
  mean percent damage reduction in comparison with untreated controls: at least 70%
